In patent US7767712B2, “Storage-stable aqueous composition comprising a magnesium compound and L-carnitine” (Verla-Pharm Arzneimittelfabrik Apotheker H.J.v. Ehrlich …, priority 2006, dated 2010):

Experiment: Solubility of L-carnitine at 20° C.
Assay type: physicochemical
Settings: in 100 g of solution
Source text: This applies, furthermore, without taking into account the amount of water which is required for dissolving magnesium aspartate hydrochloride.

C[N+](C)(C)CC(O)CC(=O)[O-] [L-carnitine, 3-hydroxy-4-(trimethylammonio)butyro-betaine]
amount of L-carnitine that can be dissolved in 100 g of an aqueous solution which contains 51% by weight magnesium aspartate hydrochloride: up to 150 g
